From ChEMBL document CHEMBL4813973, “Discovery of novel N-benzylbenzamide derivatives as tubulin polymerization inhibitors with potent antitumor activities” (Eur J Med Chem, 2021)
≈ marks a conversion by molar mass, not a printed value. Values belong to the molecule of their own block, whether it stands above or below them.

Key:
H22 [1] = experiment: Antitumor activity against […] xenografted in ICR mouse assessed as reduction of tumor weight at 20 mg/kg/day, iv for 21 days; format: functional; settings: 504 h, time 21 day
A-431 = experiment: Antiproliferative activity against human A-431 cells assessed as reduction in cell viability incubated for 72 hrs by MTT assay; format: functional, cell-based; settings: A-431, 72 h
HCT-8 [2] = experiment: Antiproliferative activity against human HCT-8 cells assessed as reduction in cell viability incubated for 72 hrs by MTT assay; format: functional, cell-based; settings: Homo sapiens, HCT-8, 72 h; read-out: IC50
MDA-MB-231 = experiment: Antiproliferative activity against human MDA-MB-231 cells assessed as reduction in cell viability incubated for 72 hrs by MTT assay; format: functional, cell-based; settings: MDA-MB-231, 72 h
H22 [3] = experiment: Antiproliferative activity against mouse H22 cells assessed as reduction in cell viability incubated for 72 hrs by MTT assay; format: functional, cell-based; settings: H22, 72 h
L02 = experiment: Cytotoxicity against human L02 cells assessed as reduction in cell viability incubated for 72 hrs by MTT assay; format: cell-based; settings: L02, 72 h
HepG2 = experiment: cells; settings: Homo sapiens, HepG2, 72 h
K562 = experiment: cells; settings: Homo sapiens, K562, 72 h
Description: Antiproliferative activity against human K562 cells assessed as reduction in cell viability incubated for 72 hrs by MTT assay

[4] = Aqueous solubility of the compound in phosphate buffer at pH 7.4 by HPLC-UV analysis; format: physicochemical
[5] = Aqueous solubility of the compound in aqueous HCl at pH 2 by HPLC-UV analysis; format: physicochemical
[6] = n-Octanol/water partition coefficient, logD of the compound incubated for 24 hrs at pH 7.4 by HPLC analysis; format: physicochemical
Bel-7402 [7] = experiment: Antiproliferative activity against human Bel-7402 cells assessed as reduction in cell viability incubated for 72 hrs by MTT assay; format: functional, cell-based; settings: Homo sapiens, Bel-7402, 72 h; read-out: IC50
Bel-7402 [8] = experiment: Antiproliferative activity against ADR-resistant human Bel-7402 cells assessed as reduction in cell viability incubated for 72 hrs by MTT assay; format: functional, cell-based; settings: Homo sapiens, Bel-7402, 72 h; read-out: IC50
[9] = Resistant index, ratio of IC50 for ADR-resistant human Bel-7402 cells to IC50 for human Bel-7402 cells; format: functional
HCT-8 [10] = experiment: Antiproliferative activity against taxol-resistant human HCT-8 cells assessed as reduction in cell viability incubated for 72 hrs by MTT assay; format: functional, cell-based; settings: Homo sapiens, HCT-8, 72 h; read-out: IC50
[11] = Resistant index, ratio of IC50 for taxol-resistant human HCT-8 cells to IC50 for human HCT-8 cells; format: functional
K562/VCR = experiment: Antiproliferative activity against VCR resistant human K562/VCR cells assessed as reduction in cell viability incubated for 72 hrs by MTT assay; format: functional, cell-based; settings: Homo sapiens, K562/VCR, 72 h; read-out: IC50
[12] = Resistant index, ratio of IC50 for VCR resistant human K562 cells to IC50 for human K562 cells; format: functional
[13] = Inhibition of pig brain tubulin polymerisation incubated for 30 mins and measured every 2 mins for 60 mins by spectrophotometric method; format: tissue-based, Sus scrofa
Sus scrofa [14] = species: Sus scrofa; experiment: Inhibition of [3H]colchicine binding to biotinylated pig brain tubulin at 1 uM incubated for 2 hrs in presence of GTP by competitive scintillation proximity assay; format: tissue-based
Sus scrofa [15] = species: Sus scrofa; experiment: Inhibition of [3H]colchicine binding to biotinylated pig brain tubulin at 5 uM incubated for 2 hrs in presence of GTP by competitive scintillation proximity assay; format: tissue-based
[16] = Metabolic stability in rat plasma assessed as parent compound remaining at 100 nM measured after 60 mins by HPLC analysis; format: ADME, cell-free; settings: 1 h, 0.1 µM
[17] = Metabolic stability in rat plasma assessed as parent compound remaining at 100 nM measured after 3 hrs by HPLC analysis; format: ADME, cell-free; settings: read-out: Stabilty

SMILES: COc1ccc(/C=C\c2cc(OC)c(OC)c(OC)c2)cc1OP(=O)(O)O [FOSBRETABULIN]
inhibition in vivo at 20 mg/kg/day (H22 [1]): 62.7%

IC50 (A-431): 0.028 µM | IC50 (HCT-8 [2]): 0.027 µM | IC50 (MDA-MB-231): 0.029 µM | IC50 (HepG2): 0.029 µM | IC50 (K562): 0.061 µM
SMILES: COc1ccc(N2CCOCC2)c(C(=O)NCc2ccc(OC)c(O)c2)c1
IC50 (H22 [3]): 0.032 µM | IC50 (L02): 0.052 µM

IC50 (A-431): 0.121 µM
SMILES: COc1ccc(CNC(=O)c2cc(O)ccc2N2CCOCC2)cc1O

IC50 (A-431): 0.025 µM | IC50 (HCT-8 [2]): 0.029 µM | IC50 (MDA-MB-231): 0.086 µM | solubility [4]: < 1 µg/mL | solubility [5]: 1110 µg/mL (≈ 3090 µM) | logD at 24 h [6]: 2.97 | IC50 (HepG2): 0.026 µM | IC50 (K562): 0.011 µM
SMILES: COc1ccc(CNC(=O)c2cc(F)ccc2N2CCCCC2)cc1O
IC50 (H22 [3]): 0.032 µM | IC50 (L02): 0.088 µM

IC50 (A-431): 0.02 µM | IC50 (HCT-8 [2]): 0.062 µM | IC50 (MDA-MB-231): 0.055 µM | IC50 (HepG2): 0.048 µM | IC50 (K562): 0.03 µM
SMILES: COc1ccc(CNC(=O)c2ccccc2N2CCOCC2)cc1O
IC50 (H22 [3]): 0.049 µM | IC50 (L02): 0.105 µM

IC50 (A-431): > 1 µM
SMILES: COc1ccc(C(=O)Nc2ccc(N3CCOCC3)c(C(=O)NCc3ccc(OC)c(O)c3)c2)cc1

IC50 (A-431): 0.127 µM
SMILES: COc1ccc(CNC(=O)c2cc([N+](=O)[O-])ccc2N2CCOCC2)cc1

IC50 (A-431): 0.01 µM | IC50 (HCT-8 [2]): 0.027 µM | IC50 (MDA-MB-231): 0.031 µM | IC50 (Bel-7402 [7]): 0.056 µM | IC50 (Bel-7402 [8]): 0.268 µM | IC50 (HCT-8 [10]): 0.221 µM | IC50 (K562/VCR): 0.297 µM | IC50 [13]: 2.99 µM | inhibition (Sus scrofa [14]): 58% | inhibition (Sus scrofa [15]): 85.7% | Stabilty [16]: Stable | remaining at 3 h, 0.1 µM [17]: 72.6% | IC50 (HepG2): 0.033 µM | IC50 (K562): 0.01 µM
SMILES: CSc1ccc(COC(=O)c2cc([N+](=O)[O-])ccc2N2CCOCC2)cc1
IC50 (H22 [3]): 0.025 µM | IC50 (L02): 0.044 µM | Ratio IC50 [9]: 4.8 | Ratio IC50 [11]: 8.2 | Ratio IC50 [12]: 29.7 | inhibition in vivo at 20 mg/kg/day (H22 [1]): 66.7%

IC50 (A-431): > 1 µM
SMILES: COCCNc1ccc([N+](=O)[O-])cc1C(=O)NCc1ccc(OC)c(O)c1

IC50 (A-431): > 1 µM
SMILES: COc1ccc(CNC(=O)c2cc([N+](=O)[O-])ccc2N2CCS(=O)(=O)CC2)cc1O

SMILES: COc1ccc(/C=C\c2cc(OC)c(OC)c(OC)c2)cc1O [COMBRETASTATIN A4]
IC50 (H22 [3]): 0.015 µM | IC50 (Bel-7402 [8]): 0.058 µM | Ratio IC50 [9]: 5.3 | IC50 (HCT-8 [10]): 0.087 µM | Ratio IC50 [11]: 7.9 | Ratio IC50 [12]: 8.1 | solubility [4]: 1 µg/mL (≈ 3.16 µM) | solubility [5]: < 1 µg/mL | logD at 24 h [6]: 2.68 | IC50 [13]: 2.64 µM | inhibition (Sus scrofa [14]): 80.2% | inhibition (Sus scrofa [15]): 90.3% | inhibition in vivo at 20 mg/kg/day (H22 [1]): 54.9% | IC50 (HepG2): 0.01 µM

IC50 (A-431): 0.037 µM | IC50 (HCT-8 [2]): 0.056 µM | IC50 (MDA-MB-231): 0.057 µM | IC50 (HepG2): 0.062 µM | IC50 (K562): 0.04 µM
SMILES: COc1ccc(CNC(=O)c2cc(C(F)(F)F)ccc2N2CCOCC2)cc1O
IC50 (H22 [3]): 0.055 µM | IC50 (L02): 0.103 µM

IC50 (A-431): 0.03 µM | IC50 (HCT-8 [2]): 0.03 µM | IC50 (MDA-MB-231): 0.029 µM | IC50 (HepG2): 0.031 µM | IC50 (K562): 0.024 µM
SMILES: COc1ccc(CNC(=O)c2cc(Br)ccc2N2CCOCC2)cc1O
IC50 (H22 [3]): 0.024 µM | IC50 (L02): 0.108 µM

IC50 (A-431): > 1 µM
SMILES: O=C(NCc1ccc(C(F)(F)F)cc1)c1cc([N+](=O)[O-])ccc1N1CCOCC1

IC50 (A-431): > 1 µM
SMILES: O=C(OCc1ccc2[nH]ccc2c1)c1cc([N+](=O)[O-])ccc1N1CCOCC1

IC50 (A-431): 0.315 µM
SMILES: COc1ccc(CNC(=O)c2cc(NCc3ccco3)ccc2N2CCOCC2)cc1O

IC50 (A-431): 0.241 µM
SMILES: COc1ccc(C(C)NC(=O)c2cc([N+](=O)[O-])ccc2N2CCOCC2)cc1 (stereo not drawn)

IC50 (A-431): 0.224 µM
SMILES: COc1ccc(CNC(=O)c2ccc([N+](=O)[O-])cc2N2CCOCC2)cc1O

IC50 (A-431): 0.372 µM
SMILES: COc1ccc(CNC(=O)c2cc([N+](=O)[O-])ccc2N2CCCC2)cc1O

IC50 (A-431): 0.143 µM
SMILES: CCOc1ccc(CNC(=O)c2cc([N+](=O)[O-])ccc2N2CCOCC2)cc1

IC50 (A-431): 0.051 µM
SMILES: CCN(CC)c1ccc([N+](=O)[O-])cc1C(=O)NCc1ccc(OC)c(O)c1

IC50 (A-431): > 1 µM
SMILES: O=C(NCc1ccc(O)cc1)c1cc([N+](=O)[O-])ccc1N1CCOCC1

IC50 (A-431): > 1 µM
SMILES: COc1ccc(CNC(=O)c2cc([N+](=O)[O-])ccc2N(C)C)cc1O

IC50 (A-431): 0.012 µM | IC50 (HCT-8 [2]): 0.011 µM | IC50 (MDA-MB-231): 0.029 µM | IC50 (HepG2): 0.012 µM | IC50 (K562): 0.019 µM
SMILES: COc1ccc(CNC(=O)c2cc([N+](=O)[O-])ccc2N2CCCCC2)cc1O
IC50 (H22 [3]): 0.025 µM | IC50 (L02): 0.12 µM

IC50 (A-431): 0.221 µM
SMILES: CSc1ccc(CNC(=O)c2cc([N+](=O)[O-])ccc2N2CCOCC2)cc1

IC50 (A-431): > 1 µM
SMILES: O=C(NCc1ccc(OC(F)(F)F)cc1)c1cc([N+](=O)[O-])ccc1N1CCOCC1

IC50 (A-431): 0.145 µM
SMILES: CN(C)c1ccc(CNC(=O)c2cc([N+](=O)[O-])ccc2N2CCOCC2)cc1
